Reference: ChEMBL document CHEMBL4819039, “Taxonomy Driven Discovery of Polyketides from Aspergillus californicus” (2021)
In brackets after ≈: the same amount, converted by molar mass. Activity calls are given as the source filed them. No cut-off for these calls is given here.

Experiments:
MCF7 = test: Cytotoxicity against human MCF7 cells after 72 hrs by MTT assay; format: functional, cell-based
HepG2 = test: Cytotoxicity against human HepG2 cells after 72 hrs by MTT assay; format: functional, cell-based
Klebsiella pneumoniae = test: Antibacterial activity against Klebsiella pneumoniae ATCC 700603 assessed as inhibition of bacterial growth; format: functional
A549 = test: Cytotoxicity against human A549 cells after 72 hrs by MTT assay; format: functional, cell-based
Staphylococcus aureus [1] = test: Antibacterial activity against methicillin-resistance Staphylococcus aureus MB5393 assessed as inhibition of bacterial growth; format: functional
Staphylococcus aureus [2] = test: Antibacterial activity against methicillin-sensitive Staphylococcus aureus ATCC 29213 assessed as inhibition of bacterial growth; format: functional
Escherichia coli = test: Antibacterial activity against Escherichia coli ATCC 25922 assessed as inhibition of bacterial growth; format: functional
MIA PaCa-2 = test: Cytotoxicity against human MIA PaCa-2 cells after 72 hrs by MTT assay; format: functional, cell-based
HL-60 = test: Cytotoxicity against human HL-60 cells after 72 hrs by CCK-8 assay; format: functional, cell-based
A2058 = test: Cytotoxicity against human A2058 cells after 72 hrs by MTT assay; format: functional, cell-based

| Structure (SMILES) | Activity (MCF7) | Activity (HepG2) | MIC (Klebsiella pneumoniae) [µg/mL] | Activity (A549) | MIC (Staphylococcus aureus [1]) [µg/mL] | MIC (Staphylococcus aureus [2]) [µg/mL] | MIC (Escherichia coli) [µg/mL] | Activity (MIA PaCa-2) | Activity (HL-60) | Activity (A2058) | Activity (Klebsiella pneumoniae) | Activity (Escherichia coli) |
| --- | --- | --- | --- | --- | --- | --- | --- | --- | --- | --- | --- | --- |
| CCCCC[C@H](O)C(=O)C[C@@H]1OC(=O)c2c(O)ccc(CC=C(C)C)c21 | inactive | inactive | > 64 | inactive | > 64 | > 64 | > 64 | inactive | inactive | inactive | – | – |
| CCCCC[C@H](O)C(=O)C[C@H]1OC(=O)c2c(O)ccc(CC=C(C)C)c21 | inactive | inactive | > 64 | inactive | > 64 | > 64 | > 64 | inactive | inactive | inactive | – | – |
| CCCCC[C@H](O)[C@@H](O)C[C@H]1OC(=O)c2c(O)ccc(CC=C(C)C)c21 | inactive | inactive | > 64 | inactive | > 64 | > 64 | > 64 | inactive | inactive | inactive | – | – |
| CCCCC[C@H](O)[C@@H](O)C[C@@H]1OCc2c(O)ccc(CC=C(C)C)c21 | inactive | inactive | > 64 | inactive | > 64 | > 64 | > 64 | inactive | inactive | inactive | – | – |
| CCCCCC(=O)[C@@]1(O)C=Cc2c(CC=C(C)C)ccc(O)c2[C@@H]1O | inactive | inactive | > 64 | inactive | > 64 | > 64 | > 64 | inactive | inactive | inactive | – | – |
| CCCCCC(=O)[C@]1(O)C=Cc2c(CC=C(C)C)ccc(O)c2[C@H]1O | inactive | inactive | > 64 | inactive | > 64 | > 64 | > 64 | inactive | inactive | inactive | – | – |
| CCCCC/C=C/C=C/c1cccc(O)c1CO | inactive | inactive | – | inactive | 48 (≈ 195 µM) | 48 (≈ 195 µM) | – | inactive | inactive | inactive | inactive | inactive |
